{"source": "ChEMBL document CHEMBL4354808", "about": "“Drugs for the Treatment of Zika Virus Infection” (J Med Chem, 2020)", "key": {"[1]": {"assay": "Cytotoxicity against human A549 cells", "format": "cell-based"}, "Zika virus [2]": {"tested_on": "Zika virus", "assay": "Antiviral activity against Zika virus infected in human A549 cells", "format": "functional, organism-based"}, "Zika virus [3]": {"tested_on": "Zika virus", "assay": "Antiviral activity against Zika virus infected in African green monkey Vero E6 cells assessed as reduction in virus infectivity at 40 uM preincubated with virus for 1 hr followed by cell infection and measured after 96 hrs by crystal violet staining based assay relative to control", "format": "functional", "conditions": "Vero C1008"}, "[4]": {"assay": "Cytotoxicity against African green monkey Vero E6 cells measured up to 24 to 72 hrs by MTT assay", "format": "cell-based, Vero C1008", "conditions": "chlorocebus sabaeus"}, "Zika virus [5]": {"tested_on": "Zika virus", "assay": "Antiviral activity against Zika virus infected in African green monkey Vero E6 cells assessed as reduction in virus infectivity preincubated with virus for 1 hr followed by cell infection and measured after 96 hrs by crystal violet staining based assay", "format": "functional, organism-based", "conditions": "Vero C1008"}, "[6]": {"assay": "Cytotoxicity against African green monkey Vero cells after 5 days by CellTiter Blue assay", "format": "cell-based", "conditions": "chlorocebus sabaeus"}, "[7]": {"assay": "Cytotoxicity against HBMEC after 5 days by CellTiter Blue assay", "conditions": "human"}, "[8]": {"assay": "Cytotoxicity against human NSC after 5 days by CellTiter Blue assay", "format": "cell-based", "conditions": "NSC cells"}, "Zika virus [9]": {"tested_on": "Zika virus", "assay": "Antiviral activity against Zika virus MR 766 infected in HBMEC measured 5 days post infection by CellTiter Blue assay", "format": "functional, organism-based", "conditions": "MR 766, 120 h"}, "Zika virus [10]": {"tested_on": "Zika virus", "assay": "Antiviral activity against Zika virus MR 766 infected in African green monkey Vero cells measured 5 days post infection by CellTiter Blue assay", "format": "functional, organism-based", "conditions": "MR 766, Vero, 120 h"}, "Zika virus [11]": {"tested_on": "Zika virus", "assay": "Antiviral activity against Zika virus MR 766 infected in human NSC measured 5 days post infection by CellTiter Blue assay", "format": "functional, organism-based", "conditions": "MR 766, 120 h"}, "[12]": {"assay": "Cytotoxicity against African green monkey Vero cells", "format": "cell-based", "conditions": "chlorocebus sabaeus"}, "[13]": {"assay": "Inhibition of Protein E in Zika virus infected in African green monkey Vero cells assessed as antiviral activity preincubated for 1 hr followed by viral infection and measured 24 hr post infection by plaque assay", "format": "cell-based"}, "[14]": {"assay": "Activation of AMPK in African green monkey Vero cells infected with Zika virus PA259459 assessed as antiviral activity measured 24 hrs post infection by plaque assay", "format": "cell-based", "conditions": "Chlorocebus aethiops"}, "Zika virus [15]": {"tested_on": "Zika virus", "assay": "Antiviral activity against Zika virus PRVABC59 Puerto Rico infected in human JEG3 cells after 24 hrs by plaque assay", "format": "functional, organism-based", "conditions": "JEG-3, 24 h"}, "[16]": {"assay": "Cytotoxicity against human JEG3 cells by alamarBlue assay", "format": "cell-based", "conditions": "JEG-3 cells"}, "[17]": {"assay": "Cytotoxicity against human HuH7 cells by MTS assay", "format": "cell-based", "conditions": "Huh-7 cells"}, "Zika virus [18]": {"tested_on": "Zika virus", "assay": "(§1) Inhibition of IMPDH in Zika virus MR766 infected in human HuH7 cells assessed as antiviral activity by measuring reduction in viral replication preincubated for 12 hrs followed by viral infection and measured day 2 post infection by qRT-PCR method", "format": "cell-based"}, "[19]": {"assay": "as §1", "format": "cell-based", "conditions": "MR766, Huh-7"}, "Zika virus [20]": {"tested_on": "Zika virus", "assay": "Antiviral activity against Zika virus infected in African green monkey Vero cells after 72 hrs by DAPI-staining based assay", "format": "functional, organism-based"}, "[21]": {"assay": "Cytotoxicity against human NSC", "format": "cell-based", "conditions": "NSC cells"}, "Zika virus [22]": {"tested_on": "Zika virus", "assay": "Antiviral activity against Zika virus H/PAN/2016/BEI-259634 infected in human NSC by CellTiter-Glo assay", "format": "functional, organism-based"}, "Zika virus [23]": {"tested_on": "Zika virus", "assay": "Antiviral activity against Zika virus infected in African green monkey Vero E6 cells assessed as reduction in virus infectivity at 160 uM preincubated with virus for 1 hr followed by cell infection and measured after 96 hrs by crystal violet staining based assay relative to control", "format": "functional", "conditions": "Vero C1008"}, "[24]": {"assay": "Inhibition of DHFR in Zika virus Mex2-81 infected in HBMEC assessed as antiviral activity incubated for 24 hrs"}, "[25]": {"assay": "Cytotoxicity against HBMEC after 24 hrs by resazurin-dye based Alamar blue assay", "conditions": "human"}}, "note": "Non-standard residues stand in square brackets, D forms with d. Residues, ends and D or L forms follow the SMILES beside them. *: point of attachment. Pro(4R-Me) = C[C@H]1CN[C@H](C(=O)O)C1; Oleoyl = CCCCCCCC/C=C\\CCCCCCCC(=O)*; hSer = N[C@@H](CCO)C(=O)O", "data": [{"smiles": "CCCCCCCC/C=C\\CCCCCCCC(=O)N[C@H](C(=O)N1C[C@H](C)C[C@H]1C(=O)N[C@H](C(=O)N[C@@H](CCO)C(=O)N[C@@H](C)C=O)C(C)C)[C@@H](C)O", "note": "(Oleoyl-T[Pro(4R-Me)]V[hSer]A-aldehyde)", "values": [{"measurement": "CC50", "setting": "[1]", "value": 1.65, "unit": "µM"}, {"measurement": "EC50", "setting": "Zika virus [2]", "value": 0.15, "unit": "µM"}]}, {"smiles": "Cc1cc(O)c2c(c1)C(=O)c1cc(O)cc(O)c1C2=O", "note": "[EMODIN]", "values": [{"measurement": "inhibition at 40 µM", "setting": "Zika virus [3]", "value": 88.3, "unit": "%"}, {"measurement": "CC50", "setting": "[4]", "value": 68.6, "unit": "µM"}, {"measurement": "IC50", "setting": "Zika virus [5]", "value": 3.2, "unit": "µM"}]}, {"smiles": "CCN(CC)CCCC(C)Nc1ccnc2cc(Cl)ccc12", "note": "(stereo not drawn) [CHLOROQUINE]", "values": [{"measurement": "CC50 at 120 h", "setting": "[6]", "value": "95 to 135", "unit": "µM"}, {"measurement": "CC50 at 120 h", "setting": "[7]", "value": "95 to 135", "unit": "µM"}, {"measurement": "CC50 at 120 h", "setting": "[8]", "value": "95 to 135", "unit": "µM"}, {"measurement": "EC50", "setting": "Zika virus [9]", "value": "9.82 to 14.2", "unit": "µM"}, {"measurement": "EC50", "setting": "Zika virus [10]", "value": "9.82 to 14.2", "unit": "µM"}, {"measurement": "EC50", "setting": "Zika virus [11]", "value": "9.82 to 14.2", "unit": "µM"}]}, {"smiles": "CC[C@H](C)[C@H](NC(=O)[C@H](CO)NC(=O)CNC(=O)[C@H](Cc1ccccc1)NC(=O)[C@H](CC(=O)O)NC(=O)[C@H](Cc1c[nH]c2ccccc12)NC(=O)[C@H](C)N)C(=O)NCC(=O)NCC(=O)N[C@H](C(=O)N[C@@H](Cc1ccccc1)C(=O)N[C@@H](CC(N)=O)C(=O)N[C@@H](CO)C(=O)N[C@H](C(=O)NCC(=O)N[C@@H](CCCCN)C(=O)N[C@@H](C)C(=O)N[C@H](C(=O)N[C@@H](Cc1cnc[nH]1)C(=O)N[C@@H](CCC(N)=O)C(=O)N[C@H](C(=O)N[C@@H](Cc1ccccc1)C(=O)O)C(C)C)C(C)C)[C@@H](C)CC)C(C)C", "values": [{"measurement": "CC50", "setting": "[12]", "value": "> 10", "unit": "µM"}, {"measurement": "EC50", "setting": "[13]", "value": 3.27, "unit": "µM"}]}, {"smiles": "O=C(O)c1c[nH]c2cc(Cl)c(-c3ccc(C4(O)CCC4)cc3)cc12", "values": [{"measurement": "EC50", "setting": "[14]", "value": 2.6, "unit": "µM"}]}, {"smiles": "O=C1C[C@@H](c2ccccc2)Oc2cc(O)cc(O)c21", "note": "[PINOCEMBRIN]", "values": [{"measurement": "EC50", "setting": "Zika virus [15]", "value": 17.4, "unit": "µM"}, {"measurement": "CC50", "setting": "[16]", "value": 251, "unit": "µM"}]}, {"smiles": "COc1cc(NC(=O)Nc2cccc(CNC(=O)O[C@H]3CCOC3)c2)ccc1-c1cnco1", "note": "[MERIMEPODIB]", "values": [{"measurement": "CC50", "setting": "[17]", "value": "> 10", "unit": "µM"}, {"measurement": "EC90", "setting": "Zika virus [18]", "value": 1, "unit": "µM"}, {"measurement": "EC50", "setting": "[19]", "value": 0.6, "unit": "µM"}]}, {"smiles": "O=C(c1cc(Cl)cc(Cl)c1O)c1[nH]c(F)c(Br)c1Br", "values": [{"measurement": "CC50", "setting": "[12]", "value": "> 100", "unit": "µM"}, {"measurement": "EC50", "setting": "Zika virus [20]", "value": 5.95, "unit": "µM"}, {"measurement": "CC50", "setting": "[21]", "value": "> 100", "unit": "µM"}, {"measurement": "EC50", "setting": "Zika virus [22]", "value": 8.56, "unit": "µM"}]}, {"smiles": "COc1ccc2cc3[n+](cc2c1OC)CCc1cc2c(cc1-3)OCO2", "note": "[BERBERINE]", "values": [{"measurement": "inhibition at 160 µM", "setting": "Zika virus [23]", "value": 77.6, "unit": "%"}, {"measurement": "CC50", "setting": "[4]", "value": 221, "unit": "µM"}, {"measurement": "IC50", "setting": "Zika virus [5]", "value": 39.1, "unit": "µM"}]}, {"smiles": "CN(Cc1cnc2nc(N)nc(N)c2n1)c1ccc(C(=O)N[C@@H](CCC(=O)O)C(=O)O)cc1", "note": "[METHOTREXATE]", "values": [{"measurement": "EC50", "setting": "[24]", "value": 0.28, "unit": "µM"}, {"measurement": "CC50 at 24 h", "setting": "[25]", "value": "> 10", "unit": "µM"}]}]}
